# Laboratory results published in patent publication US8846687B2, “Pyrazine compounds as PI3 kinase inhibitors” (Novartis AG, priority 2008, dated 2014).
# Target: recombinant GST-p110γ (human PI 3-Kγ) (Homo sapiens, UniProt P48736)
# Assay: PI 3-kinase gamma in vitro kinase assay (Scintillation Proximity Assay)
# Protocol: To express the recombinant protein, Sf9 (Spodoptera frugiperda 9) insect cells are routinely maintained at densities between 3×10^5 and 3×10^6 cells/ml in serum containing TNMFH medium (Sigma). Sf9 cells, at a density of 2×10^6 are infected with human GST-PI 3-KγΔ34 baculovirus at a multiplicity of infection (m.o.i.) of 1 for 72 hours. The infected cells are harvested by centrifugation at 1400 g for 4 minutes at 4° C. and the cell pellets are frozen at −80° C. […] Sf9 cells (1×10^9) are resuspended in 100 ml cold (4° C.) lysis buffer (50 mM Tris-HCl pH 7.5, 1% Triton X-100, 150 mM NaCl, 1 mM NaF, 2 mM DTT and protease inhibitors. Cells are incubated on ice for 30 minutes then centrifuged at 15000 g for 20 minutes at 4° C. Purification of the supernatant sample is carried out at 4° C. by affinity chromatography using SEPHAROSE™ agarose gel beads coupled to glutathione (from Amersham Pharmacia Biotech). A cell lysate/GST resin ratio of 50:1 is used. The GST resin is firstly pre-rinsed to remove ethanol preservative and then equilibrated with lysis buffer. Cell lysate (supernatant) is added (usually as 50 ml lysate to 1 ml GST resin in 50 ml tubes) and gently rotated on a mixer at 4° C. for 2-3 hours. The unbound flow through sample is collected by centrifugation at 1000 g for 5 minutes at 4° C. using a DENLEY™ centrifuge. The 1 ml GST resin containing bound material is transferred to a 15 ml FALCON™ centrifuge tube for subsequent washing and elution steps. Firstly a series of 3 cycles of washings (mixing by gentle inversion) is performed with 15 ml ice cold wash Buffer A (50 mM Tris-HCl pH 7.5, 1% Triton X-100, 2 mM DTT) interspersed with centrifugation at 1000 g for 5 minutes at 4° C. A final single wash step is performed with 15 ml ice cold wash Buffer B (50 mM Tris-HCl pH 7.5, 2 mM DTT) and then centrifuged at 1000 g for 5 minutes at 4° C. The washed GST resin is finally eluted with 4 cycles of 1 ml ice cold elution buffer (50 mM Tris-HCl pH 7.5, 10 mM reduced glutathione, 2 mM DTT, 150 mM NaCl, 1 mM NaF, 50% ethylene glycol and protease inhibitors) interspersed with centrifugation at 1000 g for 5 minutes at 4° C. Samples are aliquoted and stored at −20° C.
# An in vitro kinase assay was established that measures the transfer of the terminal phosphate of adenosine triphosphate to phosphatidylinositol. The kinase reaction is performed in a white 96 well microtitre plate as a Scintillation Proximity Assay. Each well contains 10 μl test compound in 5% dimethylsulfoxide and 20 μl assay mix (40 mM Tris, 200 mM NaCl, 2 mM ethyleneglycol-aminoethyl-tetraacetic acid (EGTA), 15 μg/ml phosphatidylinositol, 12.5 μM adenosine triphosphate (ATP), 25 mM MgCl2, 0.1 μCi [^33P]ATP). The reaction is started by the addition of 20 μl of enzyme mix (40 mM Tris, 200 mM NaCl, 2 mM EGTA containing recombinant GST-p110γ).
# Sequence of recombinant GST-p110γ (human PI 3-Kγ) (P48736 38-1102): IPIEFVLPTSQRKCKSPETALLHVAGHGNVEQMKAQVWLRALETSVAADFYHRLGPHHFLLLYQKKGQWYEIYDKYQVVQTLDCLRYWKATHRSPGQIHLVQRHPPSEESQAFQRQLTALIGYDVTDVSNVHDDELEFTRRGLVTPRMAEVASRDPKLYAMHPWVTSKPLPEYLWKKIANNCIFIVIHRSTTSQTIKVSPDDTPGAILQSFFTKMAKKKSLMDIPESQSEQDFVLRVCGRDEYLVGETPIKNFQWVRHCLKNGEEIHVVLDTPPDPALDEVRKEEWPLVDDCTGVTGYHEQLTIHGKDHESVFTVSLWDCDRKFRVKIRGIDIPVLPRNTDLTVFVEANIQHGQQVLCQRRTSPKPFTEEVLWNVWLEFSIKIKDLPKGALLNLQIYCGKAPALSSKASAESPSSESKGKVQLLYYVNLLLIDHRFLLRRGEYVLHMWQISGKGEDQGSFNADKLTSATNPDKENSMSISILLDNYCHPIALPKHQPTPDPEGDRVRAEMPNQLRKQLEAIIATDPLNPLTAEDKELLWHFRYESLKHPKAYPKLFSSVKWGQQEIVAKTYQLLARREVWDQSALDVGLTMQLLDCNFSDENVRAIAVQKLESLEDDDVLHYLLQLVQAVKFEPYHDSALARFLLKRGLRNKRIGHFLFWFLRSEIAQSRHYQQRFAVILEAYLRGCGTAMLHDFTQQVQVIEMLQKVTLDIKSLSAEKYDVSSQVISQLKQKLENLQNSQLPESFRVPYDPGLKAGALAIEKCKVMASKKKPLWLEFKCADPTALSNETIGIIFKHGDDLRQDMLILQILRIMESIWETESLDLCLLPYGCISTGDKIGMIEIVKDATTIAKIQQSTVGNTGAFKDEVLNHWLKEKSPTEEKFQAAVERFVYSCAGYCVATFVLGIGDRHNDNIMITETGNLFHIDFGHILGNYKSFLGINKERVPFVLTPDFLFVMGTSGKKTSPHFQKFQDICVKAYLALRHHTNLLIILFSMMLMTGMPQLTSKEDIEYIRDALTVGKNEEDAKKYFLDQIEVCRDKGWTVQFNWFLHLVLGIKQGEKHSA
row,IC50,Structure (SMILES)
1,362 nM,"Nc1ncc(-c2cccc(C(=O)O)c2)nc1C(=O)c1cccnc1 [Example 49, 3-[5-Amino-6-(pyridine-3-carbonyl)-pyrazin-2-yl]-benzoic acid]"
2,393 nM,"Nc1cccc(-c2cnc(N)c(C(=O)c3cccnc3)n2)c1 [Example 51, [3-Amino-6-(3-amino-phenyl)-pyrazin-2-yl]-pyridin-3-yl-methanone]"
3,33 nM,"Nc1ncc(-c2cnc(N)c(C(=O)c3cccnc3)n2)cc1C(F)(F)F [Example 1, [3-Amino-6-(6-amino-5-trifluoromethyl-pyridin-3-yl)-pyrazin-2-yl]-pyridiny-3-yl-methanone]"
4,587 nM,"Nc1ncc(-c2ccc3c(c2)OCO3)nc1C(=O)c1cccnc1 [Example 35, (3-Amino-6-benzo[1,3]dioxol-5-yl-pyrazin-2-yl)-pyridin-3-yl-methanone]"

# Second part, the molecule before the results:
row,Structure (SMILES),IC50
1,"Nc1ncc(-c2ccc(Cl)c(Cl)c2)nc1C(=O)c1ccc(CN2CCCCC2)cc1 [Example 86, [3-Amino-6-(3,4-dichloro-phenyl)-pyrazin-2-yl]-(4-piperidin-1-ylmethyl-phenyl)-methanone]",753 nM
2,"Nc1ncc(-c2cc(C(F)(F)F)cc(S(N)(=O)=O)c2)nc1C(=O)c1cccnc1 [Example 67, 3-[5-Amino-6-(pyridine-3-carbonyl)-pyrazin-2-yl]-5-trifluoromethyl-benzenesulfonamide]",431 nM
3,"Nc1ncc(-c2ccc(Cl)c(S(=O)(=O)Nc3ccccc3)c2)nc1C(=O)c1cccnc1 [Example 13, 5-[5-Smino-6-(pyridine-3-carbonyl)-pyrazin-2-yl]-2-chloro-N-phenyl-benzenesulfonamide]",12 nM
4,"Nc1ncc(-c2cc(S(=O)(=O)N3CCOCC3)c(F)cc2F)nc1C(=O)c1cccnc1 [Example 74, {3-Amino-6-[2,4-difluoro-5-(morpholine-4-sulfonyl)-phenyl]-pyrazin-2-yl}-pyridin-3-yl-methanone]",125 nM
5,Nc1ncc(-c2cncc(C(=O)N3CCOCC3)c2)nc1C(=O)c1cccnc1 [Example 28],373 nM
